pEC50: −log10 of the molar value. Structures can show the parent of a compound that is named as a salt.
These compounds were tested against T1, human parathyroid cell Ca2+ receptor (hPCaR) (Homo sapiens, UniProt P41180) (assay: [Ca2+]i fluorescence assay in HEK 293 4.0-7 cells expressing hPCaR). Conditions: buffer with 1 mM CaCl2.
T1 construct: expressed in transfected cells
T1 sequence (P41180 20-1078): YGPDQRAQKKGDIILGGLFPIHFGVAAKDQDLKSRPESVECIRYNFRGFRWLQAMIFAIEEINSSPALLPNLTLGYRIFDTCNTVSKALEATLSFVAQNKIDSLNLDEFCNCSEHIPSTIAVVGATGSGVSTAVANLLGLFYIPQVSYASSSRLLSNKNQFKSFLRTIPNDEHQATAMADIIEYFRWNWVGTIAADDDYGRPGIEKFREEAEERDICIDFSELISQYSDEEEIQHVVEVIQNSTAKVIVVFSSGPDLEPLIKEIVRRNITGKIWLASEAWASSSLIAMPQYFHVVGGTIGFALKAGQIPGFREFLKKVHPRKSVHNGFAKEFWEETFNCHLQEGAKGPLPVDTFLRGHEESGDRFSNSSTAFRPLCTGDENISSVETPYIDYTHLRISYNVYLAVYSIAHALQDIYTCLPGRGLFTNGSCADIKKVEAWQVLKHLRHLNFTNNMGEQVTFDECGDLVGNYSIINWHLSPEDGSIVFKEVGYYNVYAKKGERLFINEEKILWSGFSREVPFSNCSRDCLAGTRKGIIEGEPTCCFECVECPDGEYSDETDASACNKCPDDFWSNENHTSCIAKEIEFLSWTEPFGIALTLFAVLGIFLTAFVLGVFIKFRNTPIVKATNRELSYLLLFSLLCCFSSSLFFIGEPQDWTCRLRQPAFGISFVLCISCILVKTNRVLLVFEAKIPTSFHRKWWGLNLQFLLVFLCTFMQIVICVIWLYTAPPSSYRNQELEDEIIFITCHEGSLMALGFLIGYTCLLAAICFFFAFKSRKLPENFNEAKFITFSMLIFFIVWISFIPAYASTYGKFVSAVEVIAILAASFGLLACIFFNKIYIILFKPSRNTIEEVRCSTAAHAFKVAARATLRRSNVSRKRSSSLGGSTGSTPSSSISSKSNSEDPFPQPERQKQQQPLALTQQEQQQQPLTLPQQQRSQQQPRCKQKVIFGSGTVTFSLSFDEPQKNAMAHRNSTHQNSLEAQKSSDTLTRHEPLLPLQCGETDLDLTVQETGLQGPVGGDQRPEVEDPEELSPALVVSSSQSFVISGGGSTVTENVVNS
Type: cell-based
Procedure, shortened: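 HEK 293 clone 4.0-7 stably expressing human parathyroid Ca2+ receptor, seeded overnight, then loaded 90 min at room temperature with calcium dye in parathyroid cell buffer (pH 7.45) with 0.5% BSA and 1 mM CaCl2. Fluorescence after compound addition read at ex 485/em 530 nm.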

pEC50	Structure (SMILES)
> 7.00	NS(=O)(=O)c1ccc(-c2csc(NC(=O)N(CCCC(=O)O)CCC(c3ccccc3)c3ccccc3)n2)cc1 [Example 124]
6.00 to 7.00	O=C(CCN(CCC(c1ccccc1)c1ccccc1)C(=O)Nc1nc(-c2ccccc2)cs1)N[C@@H]1CCCNC1 [Example 102, (R)-1-(3,3-diphenylpropyl)-1-(3-oxo-3-(piperidin-3-ylamino)propyl)-3-(4-phenylthiazol-2-yl)urea]
6.00 to 7.00	CC(C)(C)OC(=O)NCCN(CCC(c1ccccc1)c1ccccc1)C(=O)Nc1nc2ccccc2s1 [Example 148, {2-[3-Benzothiazol-2-yl-1-(3,3-diphenyl-propyl)-ureido]-ethyl}-carbamic acid tert-butyl ester]
> 7.00	CS(=O)(=O)Nc1ccc(-c2csc(NC(=O)N(CCCC(=O)N[C@@H]3CCCNC3)CCC(c3ccccc3)c3ccccc3)n2)cc1 [Example 67, (R)-1-(3,3-diphenylpropyl)-3-(4-(4-(methylsulfonamido)phenyl)thiazol-2-yl)-1-(4-oxo-4-(piperidin-3-ylamino)butyl)urea]
> 7.00	O=C(CCCN(CCC(c1ccccc1)c1ccccc1)C(=O)Nc1nc2ccccc2s1)NCc1ccccc1 [Example 86, 3-(benzo[d]thiazol-2-yl)-1-(4-(benzylamino)-4-oxobutyl)-1-(3,3-diphenylpropyl)urea]
6.00 to 7.00	NC(=O)CCN(CCC(c1ccccc1)c1ccccc1)C(=O)Nc1nc(-c2ccccc2)c(Cl)s1 [Example 110, 1-(3-amino-3-oxopropyl)-3-(5-chloro-4-phenylthiazol-2-yl)-1-(3,3-diphenylpropyl)urea]
> 7.00	CS(=O)(=O)Nc1ccc(-c2nc(NC(=O)N(CCN)CCC(c3ccccc3)c3ccccc3)sc2Cl)cc1 [Example 135, 1-(2-aminoethyl)-3-(5-chloro-4-(4-(methylsulfonamido)phenyl)thiazol-2-yl)-1-(3,3-diphenylpropyl)urea]
6.00 to 7.00	CS(=O)(=O)c1ccc(-c2csc(NC(=O)N(CCC(=O)O)CCC(c3ccccc3)c3ccccc3)n2)cc1 [Example 119, 3-(1-(3,3-diphenylpropyl)-3-(4-(4-(methylsulfonyl)phenyl)thiazol-2-yl)ureido)propanoic acid]
5.30 to 6.00	CN(C)CC(C)(C)CNCCN(CCC(c1ccccc1)c1ccccc1)C(=O)Nc1nc2ccccc2s1 [Example 150, 3-Benzothiazol-2-yl-1-[2-(3-dimethylamino-2,2-dimethyl-propylamino)-ethyl]-1-(3,3-diphenyl-propyl)-urea trihydrochloride]
> 7.00	O=C(NCCN(CCC(c1ccccc1)c1ccccc1)C(=O)Nc1nc2ccccc2s1)C1CCNCC1 [Example 166, Piperidine-4-carboxylic acid {2-[3-benzothiazol-2-yl-1-(3,3-diphenyl-propyl)-ureido]-ethyl}-amide]
6.00 to 7.00	C[C@H]1CNCCN1C(=O)CCCN(CCC(c1ccccc1)c1ccccc1)C(=O)Nc1nc(-c2ccccc2)cs1 [Example 100, (S)-1-(3,3-diphenylpropyl)-1-(4-(2-methylpiperazin-1-yl)-4-oxobutyl)-3-(4-phenylthiazol-2-yl)urea]
> 7.00	O=C(NCCCCN(CCC(c1ccccc1)c1ccccc1)C(=O)Nc1nc2ccccc2s1)C1CCNCC1 [Example 127, 3-(benzo[d]thiazol-2-yl)-1-(3,3-diphenylpropyl)-1-(4-(piperidine-4-carboxamido)butyl)urea]
6.00 to 7.00	CN1CCN(C(=O)CCCN(CCC(c2ccccc2)c2ccccc2)C(=O)Nc2nc3ccccc3s2)CC1 [Example 108, 3-(benzo[d]thiazol-2-yl)-1-(3,3-diphenylpropyl)-1-(4-(4-methylpiperazin-1-yl)-4-oxobutyl)urea]
6.00 to 7.00	O=C(CCCN(CCC(c1ccccc1)c1ccccc1)C(=O)Nc1nc2ccccc2s1)N1CCOCC1 [Example 94, 3-(benzo[d]thiazol-2-yl)-1-(3,3-diphenylpropyl)-1-(4-morpholino-4-oxobutyl)urea]
> 7.00	CSCCCN(CCC(c1ccccc1)c1ccccc1)C(=O)Nc1nc(-c2ccc(NS(C)(=O)=O)cc2)c(Cl)s1 [Example 138, 3-(5-chloro-4-(4-(methylsulfonamido)phenyl)thiazol-2-yl)-1-(3,3-diphenylpropyl)-1-(3-(methylthio)propyl)urea]
> 7.00	O=C(CCCN(CCC(c1ccccc1)c1ccccc1)C(=O)Nc1nc2ccccc2s1)N[C@@H]1CCCNC1 [Example 71, (R)-3-(benzo[d]thiazol-2-yl)-1-(3,3-diphenylpropyl)-1-(4-oxo-4-(piperidin-3-ylamino)butyl)urea]
6.00 to 7.00	CC(C)(C)OC(=O)N1CCN(C(=O)CCCN(CCC(c2ccccc2)c2ccccc2)C(=O)Nc2nc3ccccc3s2)CC1 [Example 95, tert-butyl 4-(4-(3-(benzo[d]thiazol-2-yl)-1-(3,3-diphenylpropyl)ureido)butanoyl)piperazine-1-carboxylate]
6.00 to 7.00	O=C(CCCN(CCC(c1ccccc1)c1ccccc1)C(=O)Nc1nc2ccccc2s1)N1CCCCC1 [Example 105, 3-(benzo[d]thiazol-2-yl)-1-(3,3-diphenylpropyl)-1-(4-oxo-4-(piperidin-1-yl)butyl)urea]
> 7.00	CSCCN(CCC(c1ccccc1)c1ccccc1)C(=O)Nc1nc(-c2ccc(NS(C)(=O)=O)cc2)c(Cl)s1 [Example 137, 3-(5-chloro-4-(4-(methylsulfonamido)phenyl)thiazol-2-yl)-1-(3,3-diphenylpropyl)-1-(2-(methylthio)ethyl)urea]
5.30 to 6.00	C[C@@H]1CN(C(=O)CCN(CCC(c2ccccc2)c2ccccc2)C(=O)Nc2nc3ccccc3s2)CCN1 [Example 125, (R)-3-(benzo[d]thiazol-2-yl)-1-(3,3-diphenylpropyl)-1-(3-(3-methylpiperazin-1-yl)-3-oxopropyl)urea]
> 7.00	CS(=O)(=O)Nc1ccc(-c2nc(NC(=O)N(CCN[C@@H]3CCCNC3)CCC(c3ccccc3)c3ccccc3)sc2Cl)cc1 [Example 140, (R)-3-(5-chloro-4-(4-(methylsulfonamido)phenyl)thiazol-2-yl)-1-(3,3-diphenylpropyl)-1-(2-(piperidin-3-ylamino)ethyl)urea]
6.00 to 7.00	O=C(CCN(CCC(c1ccccc1)c1ccccc1)C(=O)Nc1nc2ccccc2s1)NC1CCCCC1 [Example 112, 3-(benzo[d]thiazol-2-yl)-1-(3-(cyclohexylamino)-3-oxopropyl)-1-(3,3-diphenylpropyl)urea]
6.00 to 7.00	CS(=O)(=O)Nc1ccc(-c2nc(NC(=O)NCCC(c3ccccc3)c3ccccc3)sc2Cl)cc1 [Example 176, 1-(5-chloro-4-(4-(methylsulfonamido)phenyl)thiazol-2-yl)-3-(3,3-diphenylpropyl)urea]
6.00 to 7.00	O=C(O)CCCN(CCC(c1ccccc1)c1ccccc1)C(=O)Nc1nc2ccccc2s1 [Example 104, 4-(3-(benzo[d]thiazol-2-yl)-1-(3,3-diphenylpropyl)ureido)butanoic acid]
> 7.00	CS(=O)(=O)Nc1ccc(-c2csc(NC(=O)N(CCC(N)=O)CCC(c3ccccc3)c3ccccc3)n2)cc1 [Example 77, 1-(3-amino-3-oxopropyl)-1-(3,3-diphenylpropyl)-3-(4-(4-(methylsulfonamido)phenyl)thiazol-2-yl)urea]
5.30 to 6.00	O=C(Nc1nc2ccccc2s1)N(CCNC1CCOCC1)CCC(c1ccccc1)c1ccccc1 [Example 156, 3-Benzothiazol-2-yl-1-(3,3-diphenyl-propyl)-1-[2-(tetrahydro-pyran-4-ylamino)-ethyl]-urea]
5.30 to 6.00	CCCS(=O)(=O)NCCN(CCC(c1ccccc1)c1ccccc1)C(=O)Nc1nc2ccccc2s1 [Example 168, Propane-1-sulfonic acid {2-[3-benzothiazol-2-yl-1-(3,3-diphenyl-propyl)-ureido]-ethyl}-amide]
6.00 to 7.00	CN(CCN(CCC(c1ccccc1)c1ccccc1)C(=O)Nc1nc(-c2ccccc2)cs1)C1CCCCC1 [Example 164, 1-[2-(Cyclohexyl-methyl-amino)-ethyl]-1-(3,3-diphenyl-propyl)-3-(4-phenyl-thiazol-2-yl)-urea]

Source: patent publication US20080125424A1, “Derivatives of urea and related diamines, methods for their manufacture, and uses therefor” (priority 2006, published 2008)
